Laboratory results: patent publication US7662778B2, “Histone deacetylase inhibitor and process for producing the same” (Riken, priority 2003, dated 2010)
Read-outs that look alike come from different tables or passages of the source. Where a SMILES comes first, the peptide text is derived from it. [ ]: non-standard residue; d: D form. Phe(4-NH2) = Nc1ccc(C[C@H](N)C(=O)O)cc1

Key:
[1] = target: T1, mouse HDAC6 (Mus musculus, UniProt Q9Z2V5); test: HDAC inhibitory activity in vitro (coumarin-labeled acetylated histone peptide), HDAC6; type: biochemical
T1 construct: HA; made in house; host or cells: 293T cells, transient transfection; anti-HA immunoprecipitation and HA peptide elution
T1 sequence (Q9Z2V5 1-1149): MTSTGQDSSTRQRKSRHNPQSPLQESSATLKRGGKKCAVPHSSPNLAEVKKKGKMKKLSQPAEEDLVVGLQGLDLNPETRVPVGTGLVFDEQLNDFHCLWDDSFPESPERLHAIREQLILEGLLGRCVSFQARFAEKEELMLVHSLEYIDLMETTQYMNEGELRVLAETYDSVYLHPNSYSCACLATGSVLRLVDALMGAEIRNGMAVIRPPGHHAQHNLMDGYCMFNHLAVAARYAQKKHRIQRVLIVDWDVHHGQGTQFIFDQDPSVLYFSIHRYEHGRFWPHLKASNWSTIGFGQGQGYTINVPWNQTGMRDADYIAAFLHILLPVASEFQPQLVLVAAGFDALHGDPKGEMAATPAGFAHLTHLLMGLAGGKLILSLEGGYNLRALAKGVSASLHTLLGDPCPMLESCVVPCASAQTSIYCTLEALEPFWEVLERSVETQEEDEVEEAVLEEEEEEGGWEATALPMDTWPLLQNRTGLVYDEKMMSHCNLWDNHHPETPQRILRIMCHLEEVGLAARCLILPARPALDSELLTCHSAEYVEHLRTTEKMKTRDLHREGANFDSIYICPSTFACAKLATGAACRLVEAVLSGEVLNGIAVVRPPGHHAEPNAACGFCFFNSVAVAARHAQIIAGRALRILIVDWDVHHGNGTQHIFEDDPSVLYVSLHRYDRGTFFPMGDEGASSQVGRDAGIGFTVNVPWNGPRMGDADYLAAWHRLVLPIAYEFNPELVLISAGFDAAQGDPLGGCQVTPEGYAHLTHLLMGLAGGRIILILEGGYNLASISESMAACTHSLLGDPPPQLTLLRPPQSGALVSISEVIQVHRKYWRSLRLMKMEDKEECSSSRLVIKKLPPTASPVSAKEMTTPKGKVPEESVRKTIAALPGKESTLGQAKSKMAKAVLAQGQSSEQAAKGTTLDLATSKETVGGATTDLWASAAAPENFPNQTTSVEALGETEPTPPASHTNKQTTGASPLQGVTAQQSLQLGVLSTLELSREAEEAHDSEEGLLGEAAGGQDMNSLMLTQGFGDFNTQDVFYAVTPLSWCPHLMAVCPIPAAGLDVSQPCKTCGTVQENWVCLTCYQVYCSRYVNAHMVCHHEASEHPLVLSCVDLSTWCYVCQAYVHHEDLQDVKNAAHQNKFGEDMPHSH

[2] = test system: human wild-type p21 promoter; test: p21 promoter-inducing activity (luciferase) in MFLL-9 cells; type: cell-based; conditions: Table 1; MFLL-9 cells, 18 hours; concentration corresponding to 50% of the maximum active value for TSA
Description: The HDAC inhibitory activity in vivo was measured using p21 promoter-inducing activity as an index, as shown below. The MFLL-9 cells employed for the experiments stably maintained fusion genes of human wild-type p21 promoter and luciferase (Dr. B. Vogelstaein). Using phenol red-free DMEM medium comprising 10% FBS, cultivation was carried out in a steam-saturated incubator at 37° C. with 5% carbon dioxide. The MFLL-9 cells were plated at a density of 85,000 cells/well on a 96-well microtiter plate, each in 99 μl of the above-mentioned medium. These were then cultivated for six hours. One μl of test compound solution was added to each well, which was then cultured for another 18 hours.
The intensity of luminescence caused by the product of the enzyme reaction for intracellular luciferase expression was measured using Luc Lite (Packard BioScience Company).
HDAC inhibitory activity in an in vivo system was measured using p21 promoter induction as index. The experimental method followed that of Example 11.

[3] = test system: human uterine cancer cells (HeLa); test: Cytotoxicity test (XTT), HeLa; type: cell-based; conditions: 48 hours
[4] = test system: normal human lung cells (TIG-3)
[5] = target: T2, human HDAC4 (Homo sapiens, UniProt P56524); test: HDAC inhibitory activity in vitro (coumarin-labeled acetylated histone peptide), HDAC4; type: biochemical
T2 construct: FLAG; made in house; host or cells: 293T cells, transient transfection; anti-FLAG immunoprecipitation and FLAG peptide elution

[6] = test system: tubulin deacetylase; test: Tubulin and histone acetylation level in HeLa cells by western blotting; type: cell-based, human; conditions: six hours, anti-acetylated lysine antibody, FIG. 4
Description: Tubulin and histone acetylation levels were measured by: (a) reacting a test compound with HeLa cells; and (b) confirming the tubulin and histone acetylation level by western blotting using anti-acetylated lysine antibodies. Specifically, human uterine cancer cells (HeLa) were cultured in a DMEM medium supplemented with 10% FBS at 37° C. in the presence of 5% carbon dioxide in a steam-saturated incubator. Two ml of the cells at a density of 15,000 cells/ml were plated onto a 6-well plate and cultured for 18 hours. Test compound solution was added to each culture and successively cultured for another six hours. The cells were washed with PBS, suspended in a lysis buffer (50 mM Tris-HCl (pH7.5), 120 mM NaCl, 5 mM EDTA, 0.5% Nonidet P-40), and then sonicated. The supernatant was collected by centrifugation, mixed with SDS bufer, and left at 100° C. for five minutes. The resulting sample was subjected to electroplioresis on a 15% SDS gel and transferred to a membrane film. This was treated with primary antibody “AKL5C1” (Japan Energy), and secondary antibody “anti-mouse” (LIFE SCIENCE), and then acetylation bands were detected by ECL (amersham pharmacia biotech) (FIG. 4).

[7] = target: T3, human HDAC1 (Homo sapiens, UniProt Q13547); test: HDAC inhibitory activity in vitro (coumarin-labeled acetylated histone peptide), HDAC1; type: biochemical; conditions: Table 1; 37° C., 30 minutes; read-out: IC50 (μM) HDAC1
T3 construct: FLAG; made in house; host or cells: 293T cells, transient transfection; anti-FLAG immunoprecipitation and FLAG peptide elution

[8] = amide bond, 12-membered ring, HATU/DIEA, DMF, 25.0 °C
[9] = Table 1, 37° C., 30 minutes, read-out: IC50 (μM) HDAC6
[10] = read-out: IC50 (nM) TIG-3, 48 hours, XTT

T2 sequence (P56524 whole entry): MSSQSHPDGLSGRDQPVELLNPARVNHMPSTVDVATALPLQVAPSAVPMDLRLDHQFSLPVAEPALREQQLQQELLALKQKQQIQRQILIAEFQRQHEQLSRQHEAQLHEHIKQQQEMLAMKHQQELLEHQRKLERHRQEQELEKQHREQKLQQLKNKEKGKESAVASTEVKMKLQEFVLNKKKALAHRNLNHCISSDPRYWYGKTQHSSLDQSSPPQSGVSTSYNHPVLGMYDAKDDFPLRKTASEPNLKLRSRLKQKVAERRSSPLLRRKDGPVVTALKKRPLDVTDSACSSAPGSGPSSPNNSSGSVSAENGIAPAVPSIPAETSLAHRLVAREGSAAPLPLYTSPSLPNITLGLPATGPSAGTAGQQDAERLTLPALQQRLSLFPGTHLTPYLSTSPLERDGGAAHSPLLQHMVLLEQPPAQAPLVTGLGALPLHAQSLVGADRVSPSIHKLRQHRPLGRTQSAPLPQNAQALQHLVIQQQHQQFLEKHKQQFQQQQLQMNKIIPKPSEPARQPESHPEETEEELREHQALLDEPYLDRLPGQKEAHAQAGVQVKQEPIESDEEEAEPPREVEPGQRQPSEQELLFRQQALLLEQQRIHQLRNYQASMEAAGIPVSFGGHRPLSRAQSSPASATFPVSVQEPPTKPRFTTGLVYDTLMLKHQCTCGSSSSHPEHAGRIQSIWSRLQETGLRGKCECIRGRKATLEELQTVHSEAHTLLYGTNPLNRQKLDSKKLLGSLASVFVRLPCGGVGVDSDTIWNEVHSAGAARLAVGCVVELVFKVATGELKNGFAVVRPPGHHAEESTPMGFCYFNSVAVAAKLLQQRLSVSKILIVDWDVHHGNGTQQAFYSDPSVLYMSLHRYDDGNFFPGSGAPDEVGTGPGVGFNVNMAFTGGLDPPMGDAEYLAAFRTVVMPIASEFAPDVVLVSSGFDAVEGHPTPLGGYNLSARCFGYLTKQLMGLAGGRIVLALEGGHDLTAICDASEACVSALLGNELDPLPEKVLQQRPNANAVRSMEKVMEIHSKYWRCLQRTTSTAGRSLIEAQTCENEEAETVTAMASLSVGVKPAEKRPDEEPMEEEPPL
T3 sequence (Q13547 whole entry): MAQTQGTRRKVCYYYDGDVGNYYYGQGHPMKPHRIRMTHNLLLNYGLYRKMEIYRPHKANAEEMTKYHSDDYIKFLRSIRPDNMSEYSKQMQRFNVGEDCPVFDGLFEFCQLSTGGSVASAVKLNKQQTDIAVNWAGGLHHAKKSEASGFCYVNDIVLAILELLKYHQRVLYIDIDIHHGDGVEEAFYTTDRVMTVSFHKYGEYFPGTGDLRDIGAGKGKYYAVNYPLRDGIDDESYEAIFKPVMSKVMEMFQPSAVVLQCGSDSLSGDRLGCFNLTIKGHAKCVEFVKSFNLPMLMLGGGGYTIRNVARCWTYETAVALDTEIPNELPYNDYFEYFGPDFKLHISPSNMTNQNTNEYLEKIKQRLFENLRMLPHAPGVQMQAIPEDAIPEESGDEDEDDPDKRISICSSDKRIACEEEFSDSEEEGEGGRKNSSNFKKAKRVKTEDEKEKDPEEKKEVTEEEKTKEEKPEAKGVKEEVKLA

| Structure (SMILES) | IC50 [1, 9] [µM] | EC50 [2] [µM] | IC50 [3] [nM] | IC50 ([4]; 48 h) [nM] | other results |
| --- | --- | --- | --- | --- | --- |
| CC[C@H](C)[C@@H]1NC(=O)[C@@H](Cc2ccc(OC)cc2)NC(=O)[C@H](CCCCSCC(=O)C(F)(F)F)NC(=O)[C@H]2CCCN2C1=O [Mtfk, cyclo(-L-Am6(Tfacet)-D-Tyr(Me)-L-Ile-D-Pro-)] | 0.95 | 6.64 | 52.5 | 468 | – |
| CC[C@H](C)[C@@H]1NC(=O)[C@@H](Cc2ccc(OC)cc2)NC(=O)[C@H](CCCCCC(=O)C(F)(F)C(F)(F)F)NC(=O)[C@H]2CCCN2C1=O [Pfek, cyclo(-L-Pfe-D-Tyr(Me)-L-Ile-D-Pro-)] | – | > 100 | 616 | – | IC50 [1]: 5.72 µM; IC50 [5]: 1.22 µM; IC50 [4, 10]: 13400 nM |
| CC[C@H](C)[C@@H]1NC(=O)[C@@H](Cc2ccc(OC)cc2)NC(=O)[C@H](CCCCCC(=O)C(F)(F)F)NC(=O)[C@H]2CCCN2C1=O [Tfk, cyclo(-L-Tfm-D-Tyr(Me)-L-Ile-D-Pro-)] | 1.44 | 3.09 | 8.8 | 87.1 | tubulin acetylation (tubulin deacetylase inhibition in the cells) [6]: induced high level of tubulin acetylation |
| CC[C@H](C)[C@@H]1NC(=O)[C@@H](Cc2ccc(OC)cc2)NC(=O)[C@H](Cc2ccc(N)cc2)NC(=O)[C@H]2CCCN2C1=O [Aph, cyclo(-L-Aph-D-Tyr(Me)-L-Ile-D-Pro-)] (cyclo(I[dP][Phe(4-NH2)][dY](Me))) | > 500 | > 100 | > 50000 | > 50000 | IC50 ([5]; Table 1, 37° C., 30 minutes, read-out: IC50 (μM) HDAC4): > 500 µM; IC50 [7]: > 500 µM |
| CC[C@H](C)[C@@H]1NC(=O)[C@@H](Cc2ccc(OC)cc2)NC(=O)[C@H](CCCCN(C=O)OCc2ccccc2)NC(=O)[C@@H]2CCCCN2C1=O [cyclo(-L-Lys(For, OBzl)-D-Tyr(Me)-L-Ile-L-Pip-)] | – | – | – | – | ring closure, isolated yield ([8]; from H-dTyr(Me)-Ile-Pip-Lys(For,OBzl)-OH?, 0.4 mM): 24% |
| CC(/C=C/C(=O)NO)=C\[C@@H](C)C(=O)c1ccc(N(C)C)cc1 [TSA, Trichostatin A, reference compound] | – | 0.77 | 12.3 | – | IC50 [4, 10]: 151 nM |
| CC[C@H](C)[C@@H]1NC(=O)[C@@H](Cc2ccc(OC)cc2)NC(=O)[C@H](CCCCN(C=O)OCc2ccccc2)NC(=O)[C@H]2CCCCN2C1=O [cyclo(-L-Lys(For, OBzl)-D-Tyr(Me)-L-Ile-D-Pip-)] | – | – | – | – | ring closure, isolated yield ([8]; from H-dTyr(Me)-Ile-dPip-Lys(For,OBzl)-OH?, 0.4 mM): 25% |
| CC[C@H](C)[C@@H]1NC(=O)[C@@H](Cc2ccc(OC)cc2)NC(=O)[C@H](CCCCCN(C=O)OCc2ccccc2)NC(=O)[C@@H]2CCCN2C1=O [cyclo(-L-Hly(For, OBzl)-D-Tyr(Me)-L-Ile-L-Pro-)] | – | – | – | – | ring closure, isolated yield ([8]; from H-dTyr(Me)-Ile-Pro-Hly(For,OBzl)-OH, 0.68 mM): 44% |
